Source: US20260374766A1, “METHODS FOR TREATING CANCER” (Antares Therapeutics, Inc., priority 2022, published 2026)

Experiments:
[1] = molecular target: T1, p53 Y220C mutant protein (amino acid residues 94-293) (Homo sapiens, UniProt P04637, Y220C); assay: Surface Plasmon Resonance (SPR) assay, Kd_kinetic; assay type: binding; conditions: SPR; p53 Y220C; read-out: SPR P53 Y220C KD kinetic
T1 construct: p53 Y220C mutant protein (amino acid residues 94-293)
Outline: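 Biacore 8K SPR; 16 or 20 °C; Tris 50 mM pH 7.5, NaCl 100 mM, DTT 1 mM, Brij35 0.01%, Tween-20 0.05%, DMSO 1%. Kd_kinetic by 1:1 fit.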

p53 Y220C = p53 Y220C (Homo sapiens, UniProt P04637, Y220C); assay: Luciferase Reporter Assay (Luc), p53 response element, NClH1299 cells with inducible p53 Y220C; assay type: cell-based; conditions: luciferase reporter, NClH1299 inducible p53 Y220C, 6 hour; for AC50: read-out: Luc P53 Y220C AC50
Outline: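 Doxycycline (0.5 ug/mL, 24 h) induces the mutant before a 6-hour compound treatment. Reporter activity is then quantified by One-Glo luminescence.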

NUGC3 p53 Y220C = assay: Cell Proliferation Assay (CellTiter-Glo, CTG), NUGC3 p53 Y220C; assay type: cell-based; conditions: Homo sapiens, NUGC-3, 120 h, NUGC3 cells, 5 days, CellTiter-Glo
Outline: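 Tet-One inducible p53 Y220C or R273H constructs were stably introduced into NCI-H1299 by lentiviral transduction; NUGC3 was used as is. Cells (250-500 per well) were exposed to compound for 5 days, then CellTiter-Glo was added for 10 min at room temperature and IC50 was calculated from luminescence.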

H1299 p53 Y220C = assay: Cell Proliferation Assay (CellTiter-Glo, CTG), H1299 p53 Y220C (NClH1299-inducible p53 Y220C); assay type: cell-based; conditions: Homo sapiens, NCI-H1299, 120 h, NClH1299-inducible p53 Y220C cells, 5 days, CellTiter-Glo
Outline: (§1)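 NClH1299 lines stably transduced with Tet-inducible p53 Y220C or R273H, plus NUGC3, were treated with compound for 5 days at 250-500 cells/well. IC50 derived from CellTiter-Glo luminescent signal after 10 min room-temperature incubation.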

H1299 p53 R273H = assay: Cell Proliferation Assay (CellTiter-Glo, CTG), H1299 p53 R273H (NClH1299-inducible p53 R273H); assay type: cell-based; conditions: Homo sapiens, NCI-H1299, 120 h, NClH1299-inducible p53 R273H cells, 5 days, CellTiter-Glo
Outline: as §1

T1 sequence (P04637 94-293, stated change not applied): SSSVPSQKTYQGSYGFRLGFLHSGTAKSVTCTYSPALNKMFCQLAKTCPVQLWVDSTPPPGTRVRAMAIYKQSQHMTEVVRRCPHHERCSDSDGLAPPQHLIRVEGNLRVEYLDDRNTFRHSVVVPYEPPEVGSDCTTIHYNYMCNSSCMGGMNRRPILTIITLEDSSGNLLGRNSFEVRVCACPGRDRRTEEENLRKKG

Compound	Kd [1] [µM]	AC50 (p53 Y220C) [µM]	Emax (p53 Y220C) [%]	IC50 (NUGC3 p53 Y220C) [µM]	IC50 (H1299 p53 Y220C) [µM]	IC50 (H1299 p53 R273H) [µM]
CN1CC[C@@H](Nc2cccn3c(SC(F)(F)F)c(C#CCNc4ccc(C(=O)NCC5(O)CC5)cc4)cc23)[C@@H](F)C1 [Example 427]	< 0.01	< 0.75	> 90	< 0.75	< 0.75	≥ 10
CN1CC[C@@H](Nc2cccn3c(SC(F)(F)F)c(C#CCNc4ccc(P(C)(C)=O)cn4)cc23)[C@@H](F)C1 [Example 428, 2-(3-{[5-(dimethylphosphoryl)pyridin-2-yl]amino}prop-1-yn-1-yl)-N-[(3S,4R)-3-fluoro-1-methylpiperidin-4-yl]-3-[(trifluoromethyl)sulfanyl]indolizin-8-amine]	< 0.01	< 0.75	80 to 90	< 0.75	< 0.75	≥ 10
CN1CC[C@@H](Nc2cccn3c(SC(F)(F)F)c(C#CCNc4ccc(P(C)(C)=O)nn4)cc23)[C@@H](F)C1 [Example 429, 2-(3-{[6-(dimethylphosphoryl)pyridazin-3-yl]amino}prop-1-yn-1-yl)-N-[(3S,4R)-3-fluoro-1-methylpiperidin-4-yl]-3-[(trifluoromethyl)sulfanyl]indolizin-8-amine]	< 0.01	< 0.75	80 to 90	< 0.75	< 0.75	≥ 10
CN1CC[C@@H](Nc2cccn3c(SC(F)(F)F)c(C#CCNc4ccc(C(=O)NCCS(C)(=O)=O)cc4)cc23)[C@@H](F)C1 [Example 430, 4-{[3-(8-{[(3S,4R)-3-fluoro-1-methylpiperidin-4-yl]amino}-3-[(trifluoromethyl)sulfanyl]indolizin-2-yl)prop-2-yn-1-yl]amino}-N-(2-methanesulfonylethyl)benzamide]	< 0.01	< 0.75	> 90	< 0.75	< 0.75	≥ 10
C[C@H](O)CNC(=O)c1ccc(NCC#Cc2cc3c(N[C@@H]4CCN(C)C[C@@H]4F)cccn3c2SC(F)(F)F)cc1 [Example 431]	< 0.01	< 0.75	> 90	< 0.75	< 0.75	≥ 10
CNC(=O)c1ccc(NCC#Cc2cc3c(N[C@@H]4CCN(C)C[C@@H]4F)cccn3c2SC(F)(F)F)c(C#N)c1 [Example 432, 3-cyano-4-{[3-(8-{[(3S,4R)-3-fluoro-1-methylpiperidin-4-yl]amino}-3-[(trifluoromethyl)sulfanyl]indolizin-2-yl)prop-2-yn-1-yl]amino}-N-methylbenzamide]	< 0.01	< 0.75	> 90	< 0.75	< 0.75	≥ 10
CNC(=O)c1ccc(NCC#Cc2cc3c(N[C@@H]4CCN(C)C[C@@H]4F)cccn3c2SC(F)(F)F)c(OC)n1 [Example 433, 5-{[3-(8-{[(3S,4R)-3-fluoro-1-methylpiperidin-4-yl]amino}-3-[(trifluoromethyl)sulfanyl]indolizin-2-yl)prop-2-yn-1-yl]amino}-6-methoxy-N-methylpyridine-2-carboxamide]	< 0.01	< 0.75	> 90	< 0.75	< 0.75	5 to 8
CNC(=O)c1ccc(NCC#Cc2cn3c(N[C@@H]4CCNC[C@@H]4F)cccc3c2SC(F)(F)F)c(OC)c1 [Example 434]	< 0.01	< 0.75	80 to 90	< 0.75	< 0.75	5 to 8
CNC(=O)c1ccc(NCC#Cc2cc3c(N[C@@H]4CCNC[C@@H]4F)cccn3c2SC(F)(F)F)c(OC2COC2)c1 [Example 435]	< 0.01	< 0.75	> 90	< 0.75	< 0.75	≥ 10
CNC(=O)c1ccc(NCC#Cc2cc3c(N[C@@H]4CCN(C)C[C@@H]4F)cccn3c2SC(F)(F)F)c(OCF)c1 [Example 436, 4-{[3-(8-{[(3S,4R)-3-fluoro-1-methylpiperidin-4-yl]amino}-3-[(trifluoromethyl)sulfanyl]indolizin-2-yl)prop-2-yn-1-yl]amino}-3-(fluoromethoxy)-N-methylbenzamide]	< 0.01	< 0.75	> 90	< 0.75	< 0.75	≥ 10
CN1CC[C@@H](Nc2cccn3c(SC(F)(F)F)c(C#CCNc4ccc(P(C)(C)=O)c5ocnc45)cc23)[C@@H](F)C1 [Example 437, 7-(dimethylphosphoryl)-N-[3-(8-{[(3S,4R)-3-fluoro-1-methylpiperidin-4-yl]amino}-3-[(trifluoromethyl)sulfanyl]indolizin-2-yl)prop-2-yn-1-yl]-1,3-benzoxazol-4-amine]	< 0.01	< 0.75	> 90	< 0.75	< 0.75	≥ 10
CS(=O)(=O)CCNC(=O)c1ccc(NCC#Cc2cc3c(N[C@@H]4CCNC[C@@H]4F)cccn3c2SC(F)(F)F)cc1 [Example 438]	< 0.01	< 0.75	80 to 90	< 0.75	< 0.75	≥ 10
CNC(=O)c1ccc(NCC#Cc2cn3c(N[C@@H]4CCN(C)C[C@@H]4F)cccc3c2SC(F)F)c(OC)c1 [Example 440]	< 0.01	< 0.75	> 90	< 0.75	< 0.75	8 to 10
CN1CC[C@@H](Nc2cccn3c(SC(F)(F)F)c(C#CCNc4ccc(C(=O)NC[C@@H]5COCCO5)cc4)cc23)[C@@H](F)C1 [Example 441]	< 0.01	< 0.75	> 90	< 0.75	< 0.75	≥ 10
[2H]C([2H])([2H])Oc1cc(C(=O)NC)ccc1NCC#Cc1cc2c(N[C@@H]3CCN(C)C[C@@H]3F)cccn2c1SC(F)(F)F [Example 442, 4-((3-(8-(((3S,4R)-3-fluoro-1-methylpiperidin-4-yl)amino)-3-((trifluoromethyl)thio)indolizin-2-yl)prop-2-yn-1-yl)amino)-3-(methoxy-d3)-N-methylbenzamide]	< 0.01	< 0.75	80 to 90	< 0.75	< 0.75	5 to 8
CNC(=O)c1ccc(OC)c(NCC#Cc2cc3c(N[C@@H]4CN(C)C[C@@H]4F)cccn3c2SC(F)(F)F)c1 [Example 444]	< 0.01	< 0.75	> 90	< 0.75	< 0.75	≥ 10
COc1nc(P(C)(C)=O)ncc1NCC#Cc1cc2c(N[C@@H]3CCN(C)C[C@@H]3F)cccn2c1SC(F)(F)F [Example 445, 2-(3-{[2-(dimethylphosphoryl)-4-methoxypyrimidin-5-yl]amino}prop-1-yn-1-yl)-N-[(3S,4R)-3-fluoro-1-methylpiperidin-4-yl]-3-[(trifluoromethyl)sulfanyl]indolizin-8-amine]	< 0.01	< 0.75	> 90	< 0.75	< 0.75	≥ 10
